# Assay results taken from patent US7144586B2, “Compositions for preventing hormone induced adverse effects” (Lycored Natural Products Industries Ltd., priority 2000, dated 2006).
# Entries after “also recorded” stand apart in the source; their conditions may differ.
# Columns and labels:
# [1] = tested on: ECC-1 endometrial cancer cells; assay: ECC-1 endometrial cancer cell proliferation assay ([3H]thymidine incorporation); assay type: cell-based, human; settings: for genistein-induced cell proliferation: stimulated by genistein at 1 MM (FIG. 4); for cell proliferation ([3H]thymidine incorporation into DNA): 0.4 and 4 μM, after three days (FIG. 1, panel A); for inhibition of cell proliferation: higher, non-physiological concentrations (10 μM), after three days in culture (FIG. 1, panel A); for effect on endometrial cancer cell growth over the concentration range: increasing concentrations, low to high
# Description: (§1) Tetrahydrofuran (THF) containing 0.25% butylated hydroxytoluene was added to purified carotenoids as an antioxidant. Carotenoids were dissolved in THF at a concentration of 2 mMM and stored at −70 C. Immediately before use, stock solutions were thawed and added to the cell culture medium under nitrogen, followed by vigorous stirring. Precipitates formed were removed by filtration through Millex-HV filter (Millipore). Final carotenoid concentrations in the medium were determined by spectrophotometry after extraction in 2-propanol and n-hexane:dichloronomethane, as in U.S. Pat. No. 5,827,900.
# (§2) The human endometrial cancer (estrogen dependent) cell line ECC-1 was developed by Dr. P. G. Satyaswaroop, Pennslyvania State University, Pennsylvania, U.S.A, and generously provided to us by Dr. R. Oregan, Northwestern University, Chicago, Ill., U.S.A. Human mammary cancer cell lines MCF-7 (estrogen dependent) and MDA-231 (hormone independent) were obtained from the American Type Culture Collection (Rockville, Md.).
# (§3) Cells were cultured in DMEMM containing penicillin (100 U/ml), streptomycin (0.1 mg/ml)) nystatin (12.5 (g/ml), insulin (0.6 (g/ml), and 10% FCS. Cells were stripped of endogenous steroids according to the procedure of Vignon et al. (1987, Biochem. Biophys. Res. Comm., 146:1502–8) by successive passages in medium without phenol red containing 10% and then 3% of charcoal-stripped FCS. Cells were seeded into 96 multiwell plates (5,000 cells per well) in DMEMM containing 3% of charcoal-stripped FCS. After one day the medium was changed to one containing the solubilized carotenoid or THF alone. The medium was changed daily to ensure a continuous supply of carotenoid.
# (§4) After incubation, the number of cells and the rate of cell proliferation were estimated by the incorporation of [^3H]thymidine incorporation into cellular DNA, as described in U.S. Pat. No. 5,827,900. Cell growth was also measured by direct cell counting with a Coulter counter after trypsinization and dilution in Isotone-II (Coulter Electronics, Luton, England). A good correlation was found between the two methods.
# ECC-1 cells were incubated with increasing concentrations of the isoflavones genistein and daidzein, the two primary isoflavones in soy products, and with soy extract. Cell proliferation after three days was measured by [^3H]thymidine incorporation into DNA (FIG. 1, panel A).
# ECC-1 cells were also incubated with a single high concentration (40 μM) of each of genistein, daidzein and soy extract. Cell proliferation was assayed daily over the course of three days.
# (§5) The comparative effects of estradiol and genistein supplementation on the proliferation of the hormone-dependent cell lines MCF-7 mammary cancer and ECC-1 endometrial cancer were examined (FIG. 2).
# (§6) Cell cultures stimulated either by genistein or estradiol, as described above, were further supplemented with lycopene and assayed for cell proliferation after three days in culture.
# The ECC-1 hormone-dependent cell line was stimulated either by estradiol at 10 nM (FIG. 4, left panel) or by genistein at 1 MM (FIG. 4, panel B) and test cultures were additionally supplemented with various carotenoids.
# The hormone-dependent endometrial cancer cell line ECC-1 was stimulated either by estradiol at 10 nM (FIG. 5, left panel) or by genistein at 1 μM (FIG. 5, right panel) and test cultures were additionally supplemented with various concentrations of lycopene. […] The lowest lycopene concentration tested (0.9 μM) is in the physiological range found in human serum.
# [2] = tested on: MCF-7 mammary cancer cells (estrogen dependent); assay: MCF-7 mammary cancer cell proliferation assay ([3H]thymidine incorporation); assay type: cell-based, human; settings: for phytoestrogen-induced cell proliferation: genistein (4 (M))
# Description: as §1, §2, §3, §4, §5, §6
# Thus genistein not only stimulates hormone-dependent cancer cell proliferation, but IGF-I as well as other growth factors further augment this effect.
# Cell cultures supplemented as above were further supplemented with lycopene at 3 to 5 μM concentration.
# [3] = tested on: estrogen receptor-positive human breast cancer cell lines; settings: approximately 0.1 to 2–3 μM; cited from earlier work
# [4] = tested on: estrogen receptor negative human breast cancer cell lines; settings: approximately 0.1 to 2–3 μM; cited from earlier work
# [5] = tested on: MDA-231 mammary cancer cells (hormone independent); assay: MDA-231 mammary cancer cell proliferation assay ([3H]thymidine incorporation); assay type: cell-based, human
# Description: as §1, §2, §3
# as §4, with “methods. […]” for “methods.”
# [6] = tested on: rodent models (rat colon and oral carcinogenesis); settings: dietary administration; cited from earlier work
# [7] = high, non-physiological carotenoid concentrations, about one order of magnitude greater than physiological (FIG. 6, panel B)
# [8] = single high concentration (40 μM), after one day of incubation (FIG. 1, panel B)
# [9] = lycopene at 3 to 5 μM, three days in culture (FIG. 2)
# [10] = lycopene at 3 to 5 μM, IGF-1 30 nM (FIG. 3)
compound,measurement,setting,value
CC(C)=CCC/C(C)=C/CC/C(C)=C/CC/C(C)=C/C=C/C=C(\C)CC/C=C(\C)CC/C=C(\C)CCC=C(C)C [phytoene],genistein-induced cell proliferation,[1],effective inhibitors
same,phytoestrogen-induced cell proliferation,[2]; [7],effective in significantly inhibiting
"O=c1c(-c2ccc(O)cc2)coc2cc(O)cc(O)c12 [genistein, reference compound]",cell proliferation,[3],induce cell proliferation
same,cell proliferation,[4],not in estrogen receptor negative
same,cell proliferation,"[1]; 40 μM, by the second day in culture (FIG. 1, panel B)",inhibitory effects
same,cell proliferation ([3H]thymidine incorporation into DNA),[1],significant increase in cell proliferation rate; also recorded: stimulated cell proliferation
same,inhibition of cell proliferation,[1],inhibited cell proliferation
same,effect on endometrial cancer cell growth over the concentration range,[1],biphasic effects on proliferation
same,cell proliferation,[1]; [8],significantly increases cell proliferation; also recorded: stimulated cell proliferation
same,stimulatory effect of genistein in the presence of IGF-I,"[2]; genistein plus IGF-1 30 nM, compared to genistein only (FIG. 3, panel A)",significantly increases the cell proliferation rate; also recorded: further augmented
same,effect on proliferation over the concentration range,"[2]; stimulating at low, inhibiting at high concentrations (FIG. 2, panel A)",biphasic effects on proliferation
O=c1oc2cc(O)ccc2c2oc3cc(O)ccc3c12 [counestrol],cell proliferation,[3],induce cell proliferation
same,cell proliferation,[4],not in estrogen receptor negative
CC(C)=CCC/C(C)=C/C=C/C(C)=C/C=C/C(C)=C/C=C/C=C(C)/C=C/C=C(C)/C=C/C=C(\C)CCC=C(C)C [lycopene],"estradiol-induced cell proliferation, dose dependence","[1]; estradiol at 10 nM, various lycopene concentrations, lowest 0.9 μM (FIG. 5)","inhibits, in a dose dependent manner; also recorded: effective in inhibiting"
same,"genistein-induced cell proliferation, dose dependence","[1]; genistein at 1 μM, various lycopene concentrations, lowest 0.9 μM (FIG. 5)","inhibits, in a dose dependent manner; also recorded: effective in inhibiting"
same,basal growth,[1]; [9],significantly inhibited
same,estradiol-induced growth,[1]; [9],significantly inhibited
same,genistein-induced growth,[1]; [9],substantially inhibited; also recorded: significantly inhibited
same,genistein-induced cell proliferation,[1],effective inhibitors; also recorded: effectively inhibited
same,phytoestrogen-induced cell proliferation,[2]; [7],effective in significantly inhibiting
same,phytoestrogen-induced cell proliferation,"[2]; low (physiological) concentrations: lycopene 0.4 μM, phytoene and phytofluene mixture 6 μM (FIG. 6, panel A)",do not significantly affect
same,basal growth,[2]; [9],significantly inhibited
same,estradiol-induced growth,[2]; [9],significantly inhibited
same,IGF stimulation of cell proliferation (IGF-1 and genistein),[2]; [10],inhibits the cell proliferation; also recorded: inhibits IGF stimulation
same,genistein-induced growth,"[2]; lycopene at 3 to 5 MM, three days in culture (FIG. 2)",substantially inhibited; also recorded: significantly inhibited
same,IGF stimulation of cell proliferation,[5]; [10],inhibits IGF stimulation
same,cell proliferation relative to controls,[5]; [10],reduced to levels less than that of controls
CC1=C(/C=C/C(C)=C/C=C/C(C)=C/C=C/C=C(C)/C=C/C=C(C)/C=C/C2=C(C)C(=O)[C@@H](O)CC2(C)C)C(C)(C)C[C@H](O)C1=O [astaxanthin],genistein-induced cell proliferation,[1],effective inhibitors; also recorded: effectively inhibited
same,anti-tumorigenic effects in vivo,[6],anti-tumorigenic effects
IGF-1: Human recombinant IGF-1 purchased from GroPep,cell growth,"[2]; IGF-1 30 nM (FIG. 3, panel A)",significantly stimulates cell growth
same,cell growth,"[5]; IGF-1 30 nM (FIG. 3, panel B)",significantly stimulates cell growth
CC1=C(/C=C/C(C)=C/C=C/C(C)=C/C=C/C=C(C)/C=C/C=C(C)/C=C/C2=C(C)CCCC2(C)C)C(C)(C)CCC1 [beta-carotene],genistein-induced cell proliferation,[1],effective inhibitors; also recorded: effectively inhibited
O=c1c(O)c(-c2ccc(O)cc2)oc2cc(O)cc(O)c12 [kaempferl],cell proliferation,[3],induce cell proliferation
same,cell proliferation,[4],not in estrogen receptor negative
COc1ccc(-c2coc3cc(O)cc(O)c3c2=O)cc1 [biochanin A],cell proliferation,[3],induce cell proliferation
same,cell proliferation,[4],not in estrogen receptor negative
O=c1cc(-c2ccc(O)c(O)c2)oc2cc(O)cc(O)c12 [luiolin],cell proliferation,[3],induce cell proliferation
same,cell proliferation,[4],not in estrogen receptor negative
"O=c1c(-c2ccc(O)cc2)coc2cc(O)ccc12 [daidzein, reference compound]",cell proliferation ([3H]thymidine incorporation into DNA),[1],significant increase in cell proliferation rate; also recorded: stimulated cell proliferation
same,inhibition of cell proliferation,[1],not
same,effect on endometrial cancer cell growth over the concentration range,[1],only stimulatory
same,cell proliferation,[1]; [8],significantly increases cell proliferation; also recorded: stimulated cell proliferation
